Reference: US10670605B2, “Cysteine reactive probes and uses thereof” (The Scripps Research Institute, priority 2015, dated 2020)
Values joined by “and” are separate entries in the source; they are usually repeats but may differ in a detail not shown here. Identical values can stand only once. Blank lines part the entries; values can stand above or below the molecule they belong to.

Key:
Assay in all cases: Competitive isoTOP-ABPP, cell lysates
Type in all cases: binding
CASP8 C360 (Q14790) = CASP8 C360 (Q14790) (Homo sapiens, UniProt Q14790)
MGMT C145 (P16455) = biological target: T1, MGMT C145 (P16455) (Homo sapiens, UniProt P16455); conditions: for isoTOP-ABPP ratio (reactivity profile), P16455_C145: 500 μm in-vitro ramos
T1 sequence (P16455 1-207): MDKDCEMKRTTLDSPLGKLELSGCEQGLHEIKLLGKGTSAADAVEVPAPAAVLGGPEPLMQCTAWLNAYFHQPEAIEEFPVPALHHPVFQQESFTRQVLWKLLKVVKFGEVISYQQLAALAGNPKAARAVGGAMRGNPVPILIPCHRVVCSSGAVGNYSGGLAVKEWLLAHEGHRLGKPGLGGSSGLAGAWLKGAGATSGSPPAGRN

KDM4B C694 (O94953) = biological target: T2, KDM4B C694 (O94953) (Homo sapiens, UniProt O94953)
T2 sequence (O94953 1-1096): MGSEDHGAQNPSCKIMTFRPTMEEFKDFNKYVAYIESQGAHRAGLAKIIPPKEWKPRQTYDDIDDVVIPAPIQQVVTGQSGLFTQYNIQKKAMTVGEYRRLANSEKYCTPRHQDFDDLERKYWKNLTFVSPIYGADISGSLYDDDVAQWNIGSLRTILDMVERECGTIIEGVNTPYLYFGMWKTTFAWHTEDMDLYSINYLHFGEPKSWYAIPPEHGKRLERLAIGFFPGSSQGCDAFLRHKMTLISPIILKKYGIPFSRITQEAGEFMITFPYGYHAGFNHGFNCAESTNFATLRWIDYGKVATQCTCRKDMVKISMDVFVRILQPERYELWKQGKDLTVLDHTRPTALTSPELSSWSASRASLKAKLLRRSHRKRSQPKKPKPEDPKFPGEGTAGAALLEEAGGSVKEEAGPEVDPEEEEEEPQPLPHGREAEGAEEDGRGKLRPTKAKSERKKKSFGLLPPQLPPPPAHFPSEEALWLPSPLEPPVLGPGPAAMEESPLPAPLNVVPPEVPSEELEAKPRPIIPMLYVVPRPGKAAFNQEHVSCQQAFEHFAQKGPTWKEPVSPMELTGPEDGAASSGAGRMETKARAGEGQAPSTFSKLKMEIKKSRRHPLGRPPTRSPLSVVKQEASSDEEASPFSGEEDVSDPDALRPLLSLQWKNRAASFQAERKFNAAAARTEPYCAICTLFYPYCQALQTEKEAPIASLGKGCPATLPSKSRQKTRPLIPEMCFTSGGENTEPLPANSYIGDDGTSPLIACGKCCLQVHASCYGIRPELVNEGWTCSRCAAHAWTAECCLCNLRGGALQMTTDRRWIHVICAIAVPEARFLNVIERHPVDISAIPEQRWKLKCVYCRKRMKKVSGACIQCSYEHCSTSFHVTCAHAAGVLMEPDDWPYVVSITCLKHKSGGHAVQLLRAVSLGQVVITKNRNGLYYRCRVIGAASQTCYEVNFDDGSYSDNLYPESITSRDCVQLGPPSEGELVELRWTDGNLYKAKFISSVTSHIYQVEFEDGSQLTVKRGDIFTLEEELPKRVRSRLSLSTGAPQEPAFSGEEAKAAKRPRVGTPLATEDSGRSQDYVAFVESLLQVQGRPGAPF

CASP8 C360 (Q14790), sequence (Q14790 whole entry): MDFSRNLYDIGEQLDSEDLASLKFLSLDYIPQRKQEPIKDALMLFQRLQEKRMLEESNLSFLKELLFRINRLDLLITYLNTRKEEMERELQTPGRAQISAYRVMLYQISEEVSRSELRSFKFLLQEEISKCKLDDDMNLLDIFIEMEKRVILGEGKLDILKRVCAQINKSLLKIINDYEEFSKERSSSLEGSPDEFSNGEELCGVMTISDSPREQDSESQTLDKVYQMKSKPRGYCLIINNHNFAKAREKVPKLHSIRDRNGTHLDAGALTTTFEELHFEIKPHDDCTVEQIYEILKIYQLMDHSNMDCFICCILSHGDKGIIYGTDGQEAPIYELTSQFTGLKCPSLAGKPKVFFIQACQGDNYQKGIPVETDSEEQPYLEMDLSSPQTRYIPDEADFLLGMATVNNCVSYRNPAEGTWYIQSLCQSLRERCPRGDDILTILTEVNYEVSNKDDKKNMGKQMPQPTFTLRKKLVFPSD

R value (DMSO/fragment) (CASP8 C360 (Q14790); 500 μM, in vitro, MDA-MB-231): 9.8 | R value (DMSO/fragment) (MGMT C145 (P16455); 500 μM, invitro, ramos): 20.0 | R value (DMSO/fragment) (KDM4B C694 (O94953); 500 μM, in vitro, MDA-MB-231): 20.0 | R value (DMSO/fragment) (KDM4B C694 (O94953); 500 μM, invitro, ramos): 5.1
SMILES: COc1ccc2c(c1)CCCN2C(=O)CCl [compound 2]

R value (DMSO/fragment) (CASP8 C360 (Q14790); 500 μM, in vitro, MDA-MB-231): 3.3 | R value (DMSO/fragment) (CASP8 C360 (Q14790); 500 μM, invitro, ramos): 2.3 | R value (DMSO/fragment) (MGMT C145 (P16455); 500 μM, invitro, ramos): 20.0 | R value (DMSO/fragment) (KDM4B C694 (O94953); 500 μM, in vitro, MDA-MB-231): 20.0 | R value (DMSO/fragment) (KDM4B C694 (O94953); 500 μM, invitro, ramos): 7.4
SMILES: O=C(CCl)Nc1cc(C(F)(F)F)cc(C(F)(F)F)c1 [compound 3]

R value (DMSO/fragment) (CASP8 C360 (Q14790); 250 μM, in vitro, MDA-MB-231): 12.3 | R value (DMSO/fragment) (MGMT C145 (P16455); 250 μM, in vitro, Ramos): 20.0 | R value (DMSO/fragment) (KDM4B C694 (O94953); 250 μM, in vitro, MDA-MB-231): 20.0
SMILES: COc1ccc(C2CC(c3cccs3)=NN2C(=O)CCl)cc1 (centres unmarked) [compound 4]

isoTOP-ABPP ratio Q14790_C360 (CASP8 C360 (Q14790); 500 μM, invitro, 231): 1.0 | isoTOP-ABPP ratio Q14790_C360 (CASP8 C360 (Q14790); 500 μM, invitro, ramos): 1.3 | isoTOP-ABPP ratio, P16455_C145 (MGMT C145 (P16455); 500 μM, invitro, ramos): 2.0
SMILES: C=CC(=O)N(c1ccccc1)c1ccc(Br)cc1 [compound 5]

isoTOP-ABPP ratio, O94953_C694 (KDM4B C694 (O94953); 500 μM, invitro, 231): 1.1
SMILES: CNS(=O)(=O)C=Cc1ccc2c(ccn2Cc2ccccc2)c1 [compound 6]

isoTOP-ABPP ratio Q14790_C360 (CASP8 C360 (Q14790); 500 μM, invitro, 231): 2.8 | isoTOP-ABPP ratio Q14790_C360 (CASP8 C360 (Q14790); 500 μM, invitro, ramos): 1.5 | isoTOP-ABPP ratio, O94953_C694 (KDM4B C694 (O94953); 500 μM, invitro, ramos): 1.4
SMILES: O=C(CCl)N1CCN(S(=O)(=O)c2ccccc2F)CC1 [compound 10]

isoTOP-ABPP ratio Q14790_C360 (CASP8 C360 (Q14790); 500 μM, invitro, 231): 20.0 | isoTOP-ABPP ratio Q14790_C360 (CASP8 C360 (Q14790); 500 μM, invitro, ramos): 20.0 | isoTOP-ABPP ratio, P16455_C145 (MGMT C145 (P16455); 500 μM, invitro, ramos): 20.0 | isoTOP-ABPP ratio, O94953_C694 (KDM4B C694 (O94953); 500 μM, invitro, ramos): 1.9
SMILES: Cn1cc(S(=O)(=O)N2CCOCC2)cc1C(=O)NC(=O)CCl [compound 11]

isoTOP-ABPP ratio, P16455_C145 (MGMT C145 (P16455); 500 μM, invitro, ramos): 20.0 | isoTOP-ABPP ratio, O94953_C694 (KDM4B C694 (O94953); 500 μM, invitro, 231): 1.4 | isoTOP-ABPP ratio, O94953_C694 (KDM4B C694 (O94953); 500 μM, invitro, ramos): 1.1
SMILES: O=C(CCl)NCCc1c[nH]c2ccccc12 [compound 13]

isoTOP-ABPP ratio (reactivity profile), P16455_C145 (MGMT C145 (P16455)): 1.3 | isoTOP-ABPP ratio (reactivity profile), O94953_C694 (KDM4B C694 (O94953); 500 μm in-vitro ramos): 1.1
SMILES: C=CC(=O)N(Cc1cccnc1)c1ccc(Oc2ccccc2)c(C(F)(F)F)c1 [compound 15]

SMILES: O=C(CCl)N1CCC(C(O)(c2ccccc2)c2ccccc2)CC1 [compound 20]
isoTOP-ABPP ratio (reactivity profile), Q14790_C360 (CASP8 C360 (Q14790); 500 μm in-vitro ramos): 1.5 | isoTOP-ABPP ratio (reactivity profile), Q14790_C360 (CASP8 C360 (Q14790); 500 μm in-vitro ramos_231): 1.9 | isoTOP-ABPP ratio (reactivity profile), P16455_C145 (MGMT C145 (P16455)): 20.0 | isoTOP-ABPP ratio (reactivity profile), O94953_C694 (KDM4B C694 (O94953); 500 μm in-vitro ramos): 2.0 | isoTOP-ABPP ratio (reactivity profile), O94953_C694 (KDM4B C694 (O94953); 500 μm in-vitro ramos_231): 2.8

isoTOP-ABPP ratio (reactivity profile), Q14790_C360 (CASP8 C360 (Q14790); 500 μm in-vitro ramos): 1.9 | isoTOP-ABPP ratio (reactivity profile), Q14790_C360 (CASP8 C360 (Q14790); 500 μm in-vitro ramos_231): 1.9 | isoTOP-ABPP ratio (reactivity profile), O94953_C694 (KDM4B C694 (O94953); 500 μm in-vitro ramos): 1.8
SMILES: O=C(CCl)NC12CC3CC(CC(C3)C1)C2 [compound 21]

isoTOP-ABPP ratio (reactivity profile), Q14790_C360 (CASP8 C360 (Q14790); 500 μm in-vitro ramos): 1.4 | isoTOP-ABPP ratio (reactivity profile), Q14790_C360 (CASP8 C360 (Q14790); 500 μm in-vitro ramos_231): 1.4 | isoTOP-ABPP ratio (reactivity profile), P16455_C145 (MGMT C145 (P16455)): 1.0 | isoTOP-ABPP ratio (reactivity profile), O94953_C694 (KDM4B C694 (O94953); 500 μm in-vitro ramos): 3.2
SMILES: N#C/C(=C\c1cc(C(F)(F)F)cc(C(F)(F)F)c1)C(N)=O [compound 23]

isoTOP-ABPP ratio (reactivity profile), Q14790_C360 (CASP8 C360 (Q14790); 500 μm in-vitro ramos): 1.4 | isoTOP-ABPP ratio (reactivity profile), P16455_C145 (MGMT C145 (P16455)): 20.0
SMILES: CC(Br)C(=O)Nc1cc(C(F)(F)F)cc(C(F)(F)F)c1 (centres unmarked) [compound 24]

isoTOP-ABPP ratio (reactivity profile), Q14790_C360 (CASP8 C360 (Q14790); 500 μm in-vitro ramos_231): 1.0
SMILES: CC(Cl)C(=O)Nc1cc(C(F)(F)F)cc(C(F)(F)F)c1 (centres unmarked) [compound 25]

isoTOP-ABPP ratio (reactivity profile), Q14790_C360 (CASP8 C360 (Q14790); 500 μm in-vitro ramos): 1.2 | isoTOP-ABPP ratio (reactivity profile), Q14790_C360 (CASP8 C360 (Q14790); 500 μm in-vitro ramos_231): 0.8 | isoTOP-ABPP ratio (reactivity profile), P16455_C145 (MGMT C145 (P16455)): 20.0 | isoTOP-ABPP ratio (reactivity profile), O94953_C694 (KDM4B C694 (O94953); 500 μm in-vitro ramos_231): 1.4 and 1.0
SMILES: CC(C)CCOCCNC(=O)CCl [compound 27]
